Broadly, the IC50 is the concentration that gives 50% inhibition. As usually defined, the AUC(0-t) is exposure summed from dosing to a finite time, without extrapolation to infinity. By half-life is commonly meant how long it takes for the measured level to halve. High values mean slow decline, low ones rapid decline. In general, Cmax refers to the peak of the concentration-time curve. What is called Tmax is the time at which the peak concentration occurs.

Structures can show the parent of a compound that is named as a salt. Where two headings read alike, the source gives them in different places. A value given as a limit tells only on which side of the number the result lay.

Series [1] concerns the target T1, CDK1/cyclin B1 (Homo sapiens, UniProt P06493).
T1 construct: purchased Carna Biosciences
Description: In vitro CDK1/cyclin B1 enzyme activity assay (TR-FRET). The class given is biochemical. The procedure:
CDK1/cyclin B1 was purchased from Carna Biosciences. Ulight-4E-BP1 peptide, Eu-anti-phospho-tyrosine antibody, and 1X detection buffer were purchased from PerkinElmer. High-purity ATP was purchased from Promega. EDTA was purchased from Sigma. Nivo multimode plate reader (PerkinElmer) was used.
Preparation of Kinase Buffer Solution: The kinase buffer solution consisted 50 mM HEPES, 1 mM EDTA, 10 mM MgCl2, and 0.01% Brij-35, with pH of 7.4.
The stop solution was prepared by mixing 100 µL of 1 M EDTA stock solution with […] of 1X detection buffer solution and 1725 µL of distilled water.
The enzyme, Ulight-4E-BP1 peptide, ATP, and the inhibitor were diluted using the kinase buffer solution.
The Eu-anti-phospho-tyrosine antibody was diluted to a concentration of 8 nM/L using the detection buffer solution.
The final concentration of DMSO was 4%, and the experiment was set up with duplicate wells. […] The reaction system was incubated at 25 °C for 60 minutes. After the reaction, 5 µL of the stop solution was added to each well, and further reacted at 25 °C for 5 minutes to terminate the reaction. Then 5 µL of Eu-anti-phospho-tyrosine antibody dilution was added to each well, and the mixture was incubated at 25 °C for 60 minutes.
The IC50 value was obtained by fitting the data to a four-parameter curve (using log(inhibitor) vs. response -- Variable slope model in GraphPad Prism).

The nature of series [2]: Pharmacokinetic study, oral and intravenous administration in mice. Details: species or system ICR mice. The settings on record: male, ICR, mouse, in vivo. The procedure:
This study used ICR male mice as test animals. The plasma concentrations of the test compounds and the reference compound in mice were quantitatively determined at different time points using the LC-MS/MS method following intravenous injection or oral administration to evaluate the pharmacokinetic characteristics of the test compounds in mice.
ICR mice (male, 20-30 g, 6-8 weeks old, Beijing Charles River).
A clear solution of the test compound was administered to ICR mice (fasted overnight or fed) via tail vein injection or oral gavage. For intravenous injection, blood samples (50 µL) were collected via cheek puncture at 0 h (pre-dose) and at 0.083, 0.25, 0.5, 1, 2, 4, 6, 8, and 24 h post-dose into anticoagulant tubes containing sodium heparin. The mixtures were thoroughly vortexed at 4 °C and centrifuged at 6000 rpm for 3 minutes. For oral gavage, blood samples were collected via cheek puncture at 0 h (pre-dose) and at 0.083, 0.25, 1, 2, 4, 6, 8, and 24 h post-dose into anticoagulant tubes containing sodium heparin. The mixtures were vortexed thoroughly, and centrifuged at 6000 rpm for 3 minutes. Plasma drug concentrations were determined using the LC-MS/MS method. Pharmacokinetic parameters were calculated using Phoenix WinNonlin 8.2.0 pharmacokinetic software with a non-compartmental model and linear-logarithmic trapezoidal rule.

Series [3] relates to Human Ovarian Cancer OVCAR-3 Cell Subcutaneous Xenograft Tumor. Description: In vivo pharmacodynamic (efficacy) study in OVCAR-3 subcutaneous xenograft tumor model. The settings on record: oral, BID*21 days, OVCAR-3 xenograft in CB17-SCID mice. How it is done: Cell Culture: OVCAR-3 cells (human ovarian cancer cell line, sourced from Medsyin's cell bank) were cultured in RPMI-1640 medium (ATCC modified, Gibco) supplemented with 20% FBS (Gibco) and 1% penicillin/streptomycin (P.S.), in vitro at 37 °C with 5% CO2. The cells were passaged twice weekly. OVCAR-3 cells in the exponential growth phase were collected and resuspended in a mixture of PBS and Matrigel (Corning) to prepare a cell suspension with a concentration of 5×10^7 cells/mL for mouse inoculation. The volume ratio of PBS to Matrigel was 1:1.
Animals: CB17-SCID mice, female, 6-8 weeks old, weighing 18-21 grams. A total of 40 mice were inoculated. The mice were provided by Shanghai Lingchang Biotechnology Co., Ltd.
Tumor Inoculation: Each mouse was subcutaneously injected in the right flank with 0.2 mL of OVCAR-3 tumor cells (10×10^6 cells).
Experimental Metrics: The experimental metrics aimed to evaluate whether tumor growth was inhibited, delayed, or cured. The tumor diameter was measured twice weekly using a vernier caliper. The tumor volume was calculated using the formula: V=0.5a×b^2, where a and b represent the longest and shortest diameters of the tumor, respectively.
Antitumor metric TGI (%) reflects the tumor growth inhibition rate. TGI (%) was calculated as follows: TGI (%) = [(1 - (average tumor volume at the end of drug administration in a given group - average tumor volume at the start of drug administration in that group)) / (average tumor volume at the end of treatment in a vehicle control group - average tumor volume at the start of treatment in the vehicle control group)] × 100%.

Where [4] appears, read: CDK1/cyclin B1, 1 mM ATP, 60 min at 25 °C, Table 1, read-out: CDK1 IC50.
Where [5] appears, read: exact values stated in the text below Table 1, read-out: IC50 against CDK1.

T1 sequence (P06493 whole entry): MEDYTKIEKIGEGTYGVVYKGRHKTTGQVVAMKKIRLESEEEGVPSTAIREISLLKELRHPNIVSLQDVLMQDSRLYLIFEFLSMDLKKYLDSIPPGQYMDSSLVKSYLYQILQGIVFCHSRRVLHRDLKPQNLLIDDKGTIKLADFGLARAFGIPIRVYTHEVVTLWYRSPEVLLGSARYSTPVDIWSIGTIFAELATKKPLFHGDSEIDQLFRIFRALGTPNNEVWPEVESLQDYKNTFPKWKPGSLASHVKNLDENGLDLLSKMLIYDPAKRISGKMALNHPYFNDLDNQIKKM
T1 sequence (P14635 whole entry partner): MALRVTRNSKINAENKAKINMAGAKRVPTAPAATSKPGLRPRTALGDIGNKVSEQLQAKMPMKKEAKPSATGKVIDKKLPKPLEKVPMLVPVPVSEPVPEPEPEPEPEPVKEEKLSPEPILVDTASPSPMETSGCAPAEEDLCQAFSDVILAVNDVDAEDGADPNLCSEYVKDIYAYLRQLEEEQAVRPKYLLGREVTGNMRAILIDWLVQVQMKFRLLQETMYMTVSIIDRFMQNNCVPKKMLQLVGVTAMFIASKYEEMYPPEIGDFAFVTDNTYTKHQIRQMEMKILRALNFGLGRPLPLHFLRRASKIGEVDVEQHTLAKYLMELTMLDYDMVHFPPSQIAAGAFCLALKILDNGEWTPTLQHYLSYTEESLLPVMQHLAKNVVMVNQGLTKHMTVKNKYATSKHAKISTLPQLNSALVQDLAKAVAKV

With `CONCc1nn2ccnc(Nc3cc([C@H]4CC[C@@H](OC(=O)NC(C)C)C4)[nH]n3)c2c1F` [Compound 5], the IC50 in series [1] (setting [4]) is greater than 1 µM. For the same compound, the IC50 in series [1] (setting [5]) amounted to 1.5 µM. Moreover, the bioavailability in series [2] came to 129%. For the same compound, in series [2] (iv, 5 mg/kg), the area under the curve AUC(0-t) came out at 6770 ng·h/mL, the Vd was determined as 7.58 L/kg, the clearance is 13 mL/min/kg and the half-life is 6.48 h. In series [2] (po, 30 mg/kg), the AUC(0-t) came out at 52600 ng·h/mL, the concentration peaked (Cmax) at 22100 ng/mL and the time of peak concentration (Tmax) amounted to 0.19 h.

Turning to `CON(C)Cc1nn2ccnc(Nc3cc([C@H]4CC[C@@H](OC(=O)NC(C)C)C4)[nH]n3)c2c1C` [Formate salt of compound 2], the values for the TGI in series [3] (35 mg/Kg), in series [3] (70 mg/Kg) and in series [3] (140 mg/Kg) were 104.1%, 114.1% and 114.6%, respectively. In addition, the IC50 is greater than 1 µM in series [1] (setting [4]) and 4.08 µM in series [1] (setting [5]).

As for `CON(C)Cc1nn2ccnc(Nc3cc([C@H]4CC[C@@H](OC(=O)NC(C)C)C4)[nH]n3)c2c1F` [Compound 6], the half-inhibitory concentration (IC50) in series [1] (setting [4]) is greater than 1 µM. In addition, in series [1] (setting [5]), the IC50 was determined as 3.49 µM. For the same compound, the bioavailability in series [2] turned out to be 196%. Moreover, in series [2] (iv, 5 mg/kg), the AUC(0-t) was 13200 ng·h/mL, the Vd amounted to 0.52 L/kg, the clearance amounted to 6.35 mL/min/kg and the half-life is 0.93 h. Besides, in series [2] (po, 30 mg/kg), the AUC(0-t) is 155000 ng·h/mL, the peak level (Cmax) was 41100 ng/mL and the Tmax stood at 1.08 h.

Source of the values: patent EP4653431A1, “PYRAZOLE DERIVATIVE, AND PHARMACEUTICALLY ACCEPTABLE SALT, STEREOISOMER, PHARMACEUTICAL COMPOSITION AND USE THEREOF” (Starg (Wuhan) Pharmaceutical Technology Co., Ltd, priority 2023, dated 2024).
